{
  "source": "PubChem BioAssay AID1963870",
  "about": "(Molecular Pharmacology Branch, DTP, NCI, 2024);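 further: drug exposure lasted seven days after spheroids formed for three days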;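 on viability, T/C: percent of DMSO vehicle control viability which is 100%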",
  "system": "292921-168-R-J2-PDC KRAS tumor spheroid viability",
  "experiment": "Anticancer human tumor 292921-168-R-J2-PDC patient-derived pancreatic carcinoma cell line growth inhibition [KRAS2]",
  "conditions": "spheroids with HUVEC and MSC; for IC50: curve of first compound; for viability, T/C: stronger effect = lower value",
  "text": "Multicellular complex tumor spheroid response to RAS pathway inhibitors in combination with a targeted agents in patient-derived cell lines with oncogenic KRAS variants from multiple cancer types\nA high-throughput screen of multi-cell type tumor spheroids was designed to identify active combinations of targeted small molecules and KRAS pathway inhibitors. Complex spheroids include a stromal component modeled by human endothelial cells (HUVEC) and fibroblasts modeled by human mesenchymal stem cells (MSCs). The concentration ranges selected for each drug and investigational agent were based upon clinically achievable concentrations if the clinical Cmax of the agent was known.\nCompounds. The drugs and investigational agents: BI-3406 (NSC825286), BAY-293 (NSC824723), batoprotafib (TNO155; NSC825523), sotorasib (AMG 510; NSC818433), MRTX1257 (NSC819558), elimusertib (BAY 1895344; NSC800525), molibresib (GSK525762; NSC774829), temuterkib (LY3214996; NSC803410), venetoclax (NSC766270), alisertib (NSC759677), olaparib (NSC753686), talazoparib (NSC767125), erdafitinib (NSC781556), ipatasertib (NSC767898), cabozantinib (NSC761068), nintedanib (NSC756659), abemaciclib (NSC768073), docetaxel (NSC628503), trametinib (NSC758246), and sapanisertib (NSC764658) were obtained from the National Cancer Institute (NCI) Developmental Therapeutics Program Chemical Repository. The FDA-approved anticancer drug set is available from the Developmental Therapeutics Program. […] The stock solutions were prepared in dimethyl sulfoxide (DMSO, Sigma-Aldrich, St. Louis, MO, cat. D2650) at 800-fold the tested concentration and stored at -70 degrees C prior to their use. All drugs and investigational agents were tested over a range starting from a high concentration at or near the clinical Cmax and decreasing in half-log increments. If the clinical Cmax for an agent had not been determined, the highest concentration tested was 10 microM.\nCell Culture. All cells were maintained in an incubator at 37 degrees C and 5% CO2 with 95% humidity. The PDC lines were cultured according to standard operating procedures established by the NCI PDMR (https://pdmr.cancer.gov/sops/default.htm). Briefly, all PDCs were thawed and cultured in Matrigel-coated flasks prepared with a working solution of 1X Ham's F-12 nutrient mix, without supplementation (Invitrogen, Waltham, MA, cat. 11765054), 100 U/mL penicillin-streptomycin (Invitrogen, cat. 15140122), and 2.5% Matrigel (Corning Inc., Corning, NY, cat. 354248) for the first three passages. All PDCs were cultured in complete DMEM/F-12 media containing advanced DMEM/F-12 (Invitrogen, cat. 12634028), 4.9% defined fetal bovine serum, heat inactivated (HyClone Laboratories Inc., Logan, UT, cat. SH30070.03HI), 389 ng/mL hydrocortisone (Sigma-Aldrich, cat. H4001), 9.7 ng/mL human EGF recombinant protein (Invitrogen, cat. PHG0313), 23.4 microg/mL adenine (Sigma-Aldrich, cat. A2786), 97.3 U/mL penicillin-streptomycin (Invitrogen, cat. 15140122), 1.9 mM L-glutamine (Invitrogen, cat. 25030081), and 9.7 microM Y-27632 dihydrochloride (Tocris Bioscience, Bristol, United Kingdom, cat. 1254). The PDCs were cultured in complete DMEM/F12 media without 9.7 microM Y-27632 dihydrochloride for at least two passages prior to the screen. The established cell line HOP-62 was cultured in RPMI 1640 medium, HEPES (Invitrogen, cat. 22400105) with 10% defined fetal bovine serum (HyClone Laboratories Inc., cat. SH30070.03) and 2 mM L-glutamine (Invitrogen, cat. 25030081). The pooled donor HUVEC were cultured in endothelial cell growth medium 2 (PromoCell, Heidelberg, Germany, cat. C-22011) and the hMSC were cultured in mesenchymal stem cell growth medium 2 (PromoCell, cat. C-28009). For all experiments, HUVEC and hMSC were used at passages </=5, while the malignant cell lines were used at passages </=15. […]",
  "data": [
    {"smiles": "COC(=O)c1ccc2c(C(=Nc3ccc(N(C)C(=O)CN4CCN(C)CC4)cc3)c3ccccc3)c(O)[nH]c2c1", "note": "+ C=CC(=O)N1CCN(c2nc(OCC3CCCN3C)nc3c2CCN(c2cccc4cccc(C)c24)C3)CC1CC#N", "values": [
      {"measurement": "IC50", "setting": "second compound 0.0316 µM", "value": "< 31.6", "unit": "nM"},
      {"measurement": "IC50", "setting": "second compound 0.1 µM", "value": "< 31.6", "unit": "nM"},
      {"measurement": "IC50", "setting": "second compound 0.316 µM", "value": "< 31.6", "unit": "nM"},
      {"measurement": "IC50", "setting": "second compound 1 µM", "value": "< 31.6", "unit": "nM"},
      {"measurement": "IC50", "setting": "second compound 3.16 µM", "value": "< 31.6", "unit": "nM"},
      {"measurement": "viability, T/C", "setting": "second compound 0.0316 µM, first compound 0.0316 µM", "value": 33, "unit": "%"},
      {"measurement": "viability, T/C", "setting": "second compound 0.0316 µM, first compound 0.1 µM", "value": 26.1, "unit": "%"},
      {"measurement": "viability, T/C", "setting": "second compound 0.0316 µM, first compound 0.316 µM", "value": 16.8, "unit": "%"},
      {"measurement": "viability, T/C", "setting": "second compound 0.0316 µM, first compound 1 µM", "value": 10.2, "unit": "%"},
      {"measurement": "viability, T/C", "setting": "second compound 0.0316 µM, first compound 3.16 µM", "value": 3.16, "unit": "%"},
      {"measurement": "viability, T/C", "setting": "second compound 0.0316 µM, first compound 10 µM", "value": 0.05, "unit": "%"},
      {"measurement": "viability, T/C", "setting": "second compound 0.1 µM, first compound 0.0316 µM", "value": 26.5, "unit": "%"},
      {"measurement": "viability, T/C", "setting": "second compound 0.1 µM, first compound 0.1 µM", "value": 22.9, "unit": "%"},
      {"measurement": "viability, T/C", "setting": "second compound 0.1 µM, first compound 0.316 µM", "value": 15.5, "unit": "%"},
      {"measurement": "viability, T/C", "setting": "second compound 0.1 µM, first compound 1 µM", "value": 9.38, "unit": "%"},
      {"measurement": "viability, T/C", "setting": "second compound 0.1 µM, first compound 3.16 µM", "value": 5.32, "unit": "%"},
      {"measurement": "viability, T/C", "setting": "second compound 0.1 µM, first compound 10 µM", "value": 0.11, "unit": "%"},
      {"measurement": "viability, T/C", "setting": "second compound 0.316 µM, first compound 0.0316 µM", "value": 23.6, "unit": "%"},
      {"measurement": "viability, T/C", "setting": "second compound 0.316 µM, first compound 0.1 µM", "value": 19.6, "unit": "%"},
      {"measurement": "viability, T/C", "setting": "second compound 0.316 µM, first compound 0.316 µM", "value": 13.4, "unit": "%"},
      {"measurement": "viability, T/C", "setting": "second compound 0.316 µM, first compound 1 µM", "value": 7.92, "unit": "%"},
      {"measurement": "viability, T/C", "setting": "second compound 0.316 µM, first compound 3.16 µM", "value": 2.44, "unit": "%"},
      {"measurement": "viability, T/C", "setting": "second compound 0.316 µM, first compound 10 µM", "value": 0.07, "unit": "%"},
      {"measurement": "viability, T/C", "setting": "second compound 1 µM, first compound 0.0316 µM", "value": 16.7, "unit": "%"},
      {"measurement": "viability, T/C", "setting": "second compound 1 µM, first compound 0.1 µM", "value": 16.4, "unit": "%"},
      {"measurement": "viability, T/C", "setting": "second compound 1 µM, first compound 0.316 µM", "value": 9.48, "unit": "%"},
      {"measurement": "viability, T/C", "setting": "second compound 1 µM, first compound 1 µM", "value": 6.16, "unit": "%"},
      {"measurement": "viability, T/C", "setting": "second compound 1 µM, first compound 3.16 µM", "value": 0.43, "unit": "%"},
      {"measurement": "viability, T/C", "setting": "second compound 1 µM, first compound 10 µM", "value": 0.03, "unit": "%"},
      {"measurement": "viability, T/C", "setting": "second compound 3.16 µM, first compound 0.0316 µM", "value": 0.16, "unit": "%"},
      {"measurement": "viability, T/C", "setting": "second compound 3.16 µM, first compound 0.1 µM", "value": 0.08, "unit": "%"},
      {"measurement": "viability, T/C", "setting": "second compound 3.16 µM, first compound 0.316 µM", "value": 0.07, "unit": "%"},
      {"measurement": "viability, T/C", "setting": "second compound 3.16 µM, first compound 1 µM", "value": 0.05, "unit": "%"},
      {"measurement": "viability, T/C", "setting": "second compound 3.16 µM, first compound 3.16 µM", "value": 0.04, "unit": "%"},
      {"measurement": "viability, T/C", "setting": "second compound 3.16 µM, first compound 10 µM", "value": 0.05, "unit": "%"}
    ]}
  ]
}
